# Results from US6972299B2, “Phenylethynyl and styryl derivatives of imidazole and fused ring heterocycles” (Hoffmann-La Roche Inc., priority 2000, dated 2005).
# Target: T1, rat mGlu 5a receptor (Rattus norvegicus, UniProt P31424)
# T1 construct: expressed in transfected cells; host or cells: EBNA cells (transient transfection)
# Assay: [Ca2+]i measurement (FLIPR) on mGlu 5a transfected EBNA cells, antagonist mode
# Type: cell-based
# Details: rat mGlu 5a transiently transfected EBNA cells, Fluo 3-AM, tested against 10 μM glutamate as agonist
# Description: The pharmacological activity of all of the example compounds was tested using the following method: • cDNA encoding rat mGlu 5a receptor was transiently transfected into EBNA cells using a procedure described by E.-J. Schlaeger and K. Christensen (Transient gene expression in mammalian cells grown in serum-free suspension culture; Cytotechnology, 30: 71-83,1999). [Ca^2+]i measurements were performed on mGlu 5a transfected EBNA cells after incubation of the cells with Fluo 3-AM (obtainable by FLUKA, 0.5 μM final concentration) for 1 hour at 37° C. followed by 4 washes with assay buffer (DMEM supplemented with Hank's salt and 20 mM HEPES. [Ca^2+]i measurements were done using a fluorometric imaging plate reader (FLIPR, Molecular Devices Corporation, La Jolla, Calif., USA). When compounds were evaluated as antagonists they were tested against 10 μM glutamate as agonist.
# The inhibition (antagonists) curves were fitted with a four parameter logistic equation giving IC50, and Hill coefficient using the iterative non linear curve fitting software Origin (Microcal Software Inc., Northampton, Mass., USA).
# T1 sequence (P31424 21-1171 isoform P31424-2 limits assumed): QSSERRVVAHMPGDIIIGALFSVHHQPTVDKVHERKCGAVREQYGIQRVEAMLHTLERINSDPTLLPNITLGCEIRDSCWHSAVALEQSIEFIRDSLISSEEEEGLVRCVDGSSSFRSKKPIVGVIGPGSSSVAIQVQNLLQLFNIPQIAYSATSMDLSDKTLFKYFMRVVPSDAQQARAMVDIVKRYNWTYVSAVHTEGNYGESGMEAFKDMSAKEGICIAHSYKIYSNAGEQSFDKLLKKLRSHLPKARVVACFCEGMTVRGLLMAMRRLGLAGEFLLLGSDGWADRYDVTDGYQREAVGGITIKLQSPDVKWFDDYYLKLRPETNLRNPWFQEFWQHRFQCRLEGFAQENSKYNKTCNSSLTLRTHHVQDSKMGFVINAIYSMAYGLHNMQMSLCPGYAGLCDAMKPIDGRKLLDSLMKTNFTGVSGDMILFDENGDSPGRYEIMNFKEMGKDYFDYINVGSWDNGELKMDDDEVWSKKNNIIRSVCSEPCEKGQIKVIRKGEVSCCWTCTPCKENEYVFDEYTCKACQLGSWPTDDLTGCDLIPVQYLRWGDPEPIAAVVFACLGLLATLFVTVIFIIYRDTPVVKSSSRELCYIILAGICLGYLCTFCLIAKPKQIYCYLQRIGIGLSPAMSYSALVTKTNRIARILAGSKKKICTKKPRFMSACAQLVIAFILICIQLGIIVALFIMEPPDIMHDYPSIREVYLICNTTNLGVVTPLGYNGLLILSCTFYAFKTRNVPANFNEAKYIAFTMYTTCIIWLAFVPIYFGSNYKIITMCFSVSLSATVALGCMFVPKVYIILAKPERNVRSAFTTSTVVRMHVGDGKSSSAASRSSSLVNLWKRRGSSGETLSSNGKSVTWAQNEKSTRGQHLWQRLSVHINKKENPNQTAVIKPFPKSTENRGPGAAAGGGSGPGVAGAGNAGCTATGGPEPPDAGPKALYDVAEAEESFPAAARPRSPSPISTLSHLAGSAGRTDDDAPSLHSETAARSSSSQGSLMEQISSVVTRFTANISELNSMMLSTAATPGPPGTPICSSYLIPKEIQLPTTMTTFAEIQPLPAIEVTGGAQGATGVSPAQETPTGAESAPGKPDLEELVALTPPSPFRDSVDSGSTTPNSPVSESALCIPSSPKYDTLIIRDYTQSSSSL
row,IC50 [nM],Compound
1,250,"CCOC(=O)c1c(C)nc(C#Cc2ccccc2)n1C [Example 1, 3,5-Dimethyl-2-phenylethynyl-3H-imidazole-4-carboxylic acid ethyl ester]"
2,2400,"CCOC(=O)c1[nH]c(C#Cc2ccccc2)nc1C [Example 2, 5-Methyl-2-phenylethynyl-3H-imidazole-4-carboxylic acid ethyl ester]"
3,350,"CCOC(=O)c1c(C)nc(C#Cc2cccc(OC)c2)n1C [Example 3, 2-(3-Methoxy-phenylethynyl)-3,5-dimethyl-3H-imidazole-4-carboxylic acid ethyl ester]"
4,720,"Cn1ccnc1C#Cc1ccccc1 [Example 4, 1-Methyl-2-phenylethynyl-1H-imidazole]"
5,2110,"O=[N+]([O-])c1cnc(C#Cc2ccccc2)n1CCO [Example 5, 2-(5-Nitro-2-phenylethynyl-imidazol-1-yl)-ethanol]"
6,< 10000,"CCOC(=O)c1nc(C#Cc2ccccc2)n(-c2ccccc2)c1C [Example 8, 5-Methyl-1-phenyl-2-phenylethynyl-1H-imidazole-4-carboxylic acid ethyl ester]"
7,130,"CCOC(=O)c1c(C)nc(C#Cc2cccc(C)c2)n1C [Example 9, 3,5-dimethyl-2-m-tolylethynyl-3H-imidazole-4-carboxylic acid ethyl ester]"
8,2120,"CCOC(=O)c1c(C)nc(C#Cc2cccc(NC(C)=O)c2)n1C [Example 10, 2-(3-Acetylamino-phenylethynyl)-3,5-dimethyl-3H-imidazole-4-carboxylic acid ethyl ester]"
9,180,CCOC(=O)c1c(C)nc(C#Cc2cccc(-n3c(C)ccc3C)c2)n1C [Example 11]
10,11,"Cc1noc(-c2c(C)nc(C#Cc3ccccc3)n2C)n1 [Example 12, 5-(3,5-Dimethyl-2-phenylethynyl-3H-imidazol-4-yl)-3-methyl-[1,2,4]oxadiazole]"
11,< 10000,"CCOC(=O)c1c(C)nc(C#Cc2ccc(Cl)cc2)n1C [Example 14, 2-(4-Chloro-phenylethynyl)-3,5-dimethyl-3H-imidazole-4-carboxylic acid ethyl ester]"
12,250,"CCOC(=O)c1c(C)nc(C#Cc2ccc(F)cc2)n1C [Example 15, 2-(4-Fluoro-phenylethynyl)-3,5-dimethyl-3H-imidazole-4-carboxylic acid ethyl ester]"
13,210,"CCOC(=O)c1c(C)nc(C#Cc2ccc(-c3ccccc3)cc2)n1C [Example 16, 2-Biphenyl-4-ylethynyl-3,5-dimethyl-3H-imidazole-4-carboxylic acid ethyl ester]"
14,90,"CCOC(=O)c1c(C)nc(C#Cc2ccccc2F)n1C [Example 17, 2-(2-Fluoro-phenylethynyl)-3,5-dimethyl-3H-imidazole-4-carboxylic acid ethyl ester]"
15,70,"Cn1ccnc1C#Cc1ccccc1F [Example 18, 2-(2-Fluoro-phenylethynyl)-1-methyl-1H-imidazole]"
16,1530,"CCOC(=O)c1c(C)nc(C#Cc2ccc(N)cc2)n1C [Example 19, 2-(4-Amino-phenylethynyl)-3,5-dimethyl-3H-imidazole-4-carboxylic acid ethyl ester]"
17,1100,"Cn1ccnc1C#Cc1ccccc1Cl [Example 20, 2-(2-Chloro-phenylethynyl)-1-methyl-1H-imidazole]"
18,520,"CCOC(=O)Cn1c(C#Cc2ccccc2)nc(Cl)c1Cl [Example 21, (4,5-Dichloro-2-phenylethynyl-imidazol-1-yl)-acetic acid ethyl ester]"

row,IC50 [nM],Compound
1,220,"Cn1cncc1C#Cc1ccccc1 [Example 22, 1-Methyl-5-phenylethynyl-1H-imidazole]"
2,580,"COc1ccc2[nH]c(C#Cc3ccccc3)c(CCNC(C)=O)c2c1 [Example 23, N-[2-(5-Methoxy-2-phenylethynyl-1H-indol-3-yl)-ethyl]-acetamide]"
3,150,"C(#Cc1ncn2c1CSc1ncccc1-2)c1ccccc1 [Example 24, 3-Phenylethynyl-4H-5-thia-2,6,9b-triaza-cyclopenta[a]naphthalene]"
4,230,"Cc1nc(C#Cc2ccccc2)c([N+](=O)[O-])n1CC(O)CCl (stereo not drawn) [Example 26, 1-Chloro-3-(2-methyl-5-nitro-4-phenylethynyl-imidazol-1-yl)-propan-2-ol]"
5,1790,"Cn1cnc(C#Cc2ccccc2)c1C=O [Example 27, 3-Methyl-5-phenylethynyl-3H-imidazole-4-carbaldehyde]"
6,3360,"C(#Cc1c[nH]cn1)c1ccccc1 [Example 28, 4-Phenylethynyl-1H-imidazole]"
7,500,"Cn1cnc(C#Cc2ccccc2)c1 [Example 29, 1-Methyl-4-phenylethynyl-1H-imidazole]"
8,20,"Cc1nc(C#Cc2ccccc2)c([N+](=O)[O-])n1C [Example 30, 1,2-Dimethyl-5-nitro-4-phenylethynyl-1H-imidazole]"
9,5000 to 10000,"Cc1cc(C#Cc2ccccc2)n(C)n1 [Example 31, 1,3-Dimethyl-5-phenylethynyl-1H-pyrazole]"
10,1820,"CC(C)c1nc(C=Cc2ccccc2)n(C)c1C(C)C [Example 32, 4,5-Diisopropyl-1-methyl-2-styryl-1H-imidazole]"
11,5000 to 10000,"CC(C)c1nc(C=Cc2ccc(F)cc2)n(C)c1C(C)C [Example 33, 2-[2-(4-Fluoro-phenyl)-vinyl]-4,5-diisopropyl-1-methyl-1H-imidazole]"
12,5000 to 10000,"CC(C)c1nc(C=Cc2ccc(Cl)cc2)n(C)c1C(C)C [Example 34, 2-[2-(4-Chloro-phenyl)-vinyl]-4,5-diisopropyl-1-methyl-1H-imidazole]"
13,5000 to 10000,"COc1cc(C)c(C=Cc2nc(C(C)C)c(C(C)C)n2C)c(C)c1C [Example 36, 4,5-Diisopropyl-2-[2-(4-methoxy-2,3,6-trimethyl-phenyl)-vinyl]-1-methyl-1H-imidazole]"
14,5000 to 10000,"COc1ccc(C=Cc2nc(C(C)C)c(C(C)C)n2C)cc1 [Example 37, 4,5-diisopropyl-2-[2-(4-methoxy-phenyl)-vinyl]-1-methyl-1H-imidazole]"
15,3250,"Cc1ccc(C=Cc2nc(C(C)C)c(C(C)C)n2C)cc1 [Example 42, 4,5-Diisopropyl-1-methyl-2-(2-p-tolyl-vinyl)-1H-imidazole]"
16,3060,"Cn1cnc(Br)c1C=Cc1ccccc1 [Example 43, 4-Bromo-1-methyl-5-styryl-1H-imidazole]"
17,8000,"Cn1cncc1C=Cc1ccccc1 [Example 44, 1-Methyl-5-styryl-1H-imidazole]"

row,Compound,IC50 [nM]
1,"C(#Cc1ncc[nH]1)c1ccccc1 [Example 6, 2-Phenylethynyl-1H-imidazole]",200
2,"CCCCOc1ccc(C=Cc2nc(C(C)C)c(C(C)C)n2C)cc1 [Example 35, 2-[2-(4-Butoxy-phenyl)-vinyl]-4,5-diisopropyl-1-methyl-1H-imidazole]",5000 to 10000

# Test system: not given
# Assay: not given
# Details: not given
row,melting point [°C],Compound
1,137,"Cc1noc(-c2c(C)nc(C#Cc3ccccc3)n2C)n1 [Example 12, 5-(3,5-Dimethyl-2-phenylethynyl-3H-imidazol-4-yl)-3-methyl-[1,2,4]oxadiazole]"
2,120,"Cc1nc(C#Cc2ccccc2)n(C)c1-c1nc(C2CC2)no1 [Example 13, 3-Cyclopropyl-5-(3,5-dimethyl-2-phenylethynyl-3H-imidazol-4-yl)-[1,2,4]oxadiazole]"
